Assay results from patent US20120122969A1, “TREATMENT OF PERVASIVE DEVELOPMENTAL DISORDERS WITH TOCOTRIENOLS OR TOCOTRIENOL ENRICHED EXTRACTS” (AMPERE LIFE SCIENCES, INC., priority 2009, published 2012).

System: Human Dermal Fibroblasts from Autistic Patients
Assay: Rescue of ASD fibroblasts stressed by addition of L-buthionine-(S,R)-sulfoximine (BSO), Calcein AM viability readout
Format: cell-based
Details: 1 mM BSO, 48 hours, Calcein AM fluorescence, viability relative to non-BSO treated fibroblasts (100%); read-out: EC50 of protection against ASD (rescue of BSO-stressed ASD fibroblasts)
Protocol: A screen was performed to identify compounds effective for the amelioration of ASD. Test samples, and solvent controls were tested for their ability to rescue ASD fibroblasts stressed by addition of L-buthionine-(S,R)-sulfoximine (BSO).
MEM (a medium enriched in amino acids and vitamins, catalog no. Gibco 11965) and Fetal Calf Serum were obtained from Invitrogen. Basic fibroblast growth factor and epidermal growth factor were purchased from PeproTech. Penicillin-streptomycin-glutamine mix, L-buthionine (S,R)-sulfoximine, and insulin from bovine pancreas were purchased from Sigma. Calcein AM was purchased from Molecular Probes. Cell culture medium (ATP) was made by combining 75 ml Fetal Calf Serum, 100 U/ml penicillin, 100 μg/ml streptomycin, 2 mM glutamine, 10 ng/ml EGF, and 10 ng/ml bFGF; MEM EBS was added to make the volume up to 500 ml. A 10 mM BSO solution was prepared by dissolving 444 mg BSO in 200 ml of medium with subsequent filter-sterilization. […]
100 μl of PBS containing 1.2 μM Calcein AM were then added to each well. […] After that time the PBS was discarded, the plate gently tapped on a paper towel and fluorescence (excitation/emission wavelengths of 485 nm and 525 nm, respectively) was read on a Gemini fluorescence reader. […]
The viability of non-BSO treated fibroblasts was set as 100%, and the viability of the BSO- and compound-treated cells was calculated as relative to this value.

With alpha-tocotrienol the EC50 was under 50 nM.
